Measurements from patent US5994342A, “3-(substituted methyl)-4-oxa-1-azabicyclo[3.2.0]heptan-7-one derivatives useful as antitumor agents” (priority 1994, dated 1999).
In brackets after ≈: the same amount, converted by molar mass. Where a name gives a salt, the structure may show the parent alone.

The molecules below were run on KB cells (assay: In vitro KB cell cytotoxicity assay (crystal violet)). Details: Homo sapiens, 72 h, 3 days culture, read-out: KB Cell Cytotoxicity TD50.
Type: cell-based
Procedure: In Vitro KB Cell Cytotoxicity Assay In vitro KB cell cytoxocity assay was done by modification of the crystal violet assay ([…] et al., Anal Biochem., 159, 109-113 (1986). KB cells were cultivated in Eagles minimum essential medium supplemented with 10% calf serum and incubated at 37° C. in a humidified 5% CO2 atmosphere to prepare a cell stock. Cells were counted using a neubauer hemocytometer and seeded in 96 well plates at 100 μl of 3×10^4 cells/ml and cultured for one day. […] Control wells were identical except that test compound was absent. These were cultured for three days. Then the cells were fixed with addition of 20 μl of 25% glutaraldehyde for 15 minutes, washed with water and dried. Then stained with 100 μl of 0.05% crystal violet for 15 minutes, washed with water and dried. The wells are eluted with […] of 0.05M NaH2 PO4 /ethanol (1:1 v/v) and read at OD540 on a multiscan spectrophotometer. Inhibition value of cell growth was calculated based on optical density using the following equation; [formula] TD50 values were calculated from linear regression ines of the log-logit plot.

Point of comparison: `CC(=O)N[C@@H](C(=O)OC[C@H]1CN2C(=O)C[C@@H]2O1)C(C)C` (mixture of isomers) [Example 61, (3RS,5SR)-3-(D-2-Acetylamino-3-methylbutyryl)oxymethyl-4-oxa-1-azabicyclo[3.2.0]heptan-7-one], IC50 0.385 µg/mL. Against it:
- C#CC(=O)NC[C@@H]1CN2C(=O)C[C@H]2O1 (racemic) [Example 20, (3RS,5RS)-3-[N-Propynoylaminomethyl]-4-oxa-1-azabicyclo[3.2.0]heptan-7-one] — within 1.5-fold, 0.333 µg/mL (≈ 1.71 µM)
- C[C@@H](NC(=O)OCc1ccccc1)C(=O)N[C@@H](CO)C(=O)OCC1CN2C(=O)CC2O1 (stereo partly drawn) [Example 71, (3RS,5SR)-3-[L-2-N-(D-2-N-Benzyloxycarbonylaminopropanoyl)amino-3-hydroxypropanoyl]oxymethyl-4-oxa-1-azabicyclo[3.2.0]heptan-7-one] — within 1.5-fold, 0.549 µg/mL (≈ 1.26 µM)
- CC(=O)N[C@@H](CCCCNC(=O)OCc1ccccc1)C(=O)OCC1CN2C(=O)CC2O1 (stereo partly shown) [Example 78] — 8.8-fold higher, 3.38 µg/mL (≈ 7.55 µM)
- O=C(Cn1ccnn1)NC[C@@H]1CN2C(=O)C[C@H]2O1 (racemic) [Example 10, (3RS,5RS)-3-[N-(1,2,3-Triazole-1-yl)acetylaminomethyl]-4-oxa-1-azabicyclo[3.2.0]heptan-7-one] — within 1.5-fold, 0.282 µg/mL (≈ 1.12 µM)
- O=C(O)CCC(=O)NC[C@H]1CN2C(=O)C[C@@H]2O1 (relative stereo) [Example 18, Sodium{N-[(3RS,5RS)-7-oxo-1-aza-4-oxabicyclo[3.2.0]hept-3-yl]methylamino}succinate] — 7.4-fold higher, 2.85 µg/mL
- N[C@@H](CC(=O)O)C(=O)N[C@@H](Cc1ccccc1)C(=O)NCC1CN2C(=O)CC2O1 (stereo partly drawn) [Example 64B, (3RS,5RS)-3-N-[L-2-N-(L-2-Amino-3-carboxypropanoyl)amino-3-phenylpropanoyl]aminomethyl-4-oxa-1-azabicyclo[3.2.0]heptan-7-one] — 6.9-fold higher, 2.65 µg/mL (≈ 6.55 µM)
- C[C@H](N)C(=O)NCC1CN2C(=O)CC2O1 (stereo partly drawn) [Example 50B, (3RS,5RS)-3-N-(L-2-Aminopropanoyl)aminomethyl-4-oxa-1-azabicyclo[3.2.0]heptan-7-one hydrochloride] — 1.7-fold higher, 0.657 µg/mL
- N[C@@H](CO)C(=O)NCC1CN2C(=O)CC2O1 (stereo partly drawn) [Example 76B, (3RS,5RS)-3-[N-(L-2-Amino-3-hydroxypropanoyl)aminomethyl]-4-oxa-1-azabicyclo[3.2.0]heptan-7-one hydrochloride] — 23-fold higher, 8.81 µg/mL
- N#Cc1ccc(C(=O)NC[C@@H]2CN3C(=O)C[C@H]3O2)cc1 (racemic) [Example 30, (3RS,5RS)-3-[N-(4-Cyanobenzoyl)aminomethyl]-4-oxa-1-azabicyclo[3.2.0]heptan-7-one] — within 1.5-fold, 0.378 µg/mL (≈ 1.39 µM)
- O=C(NC[C@@H]1CN2C(=O)C[C@H]2O1)c1cccnc1 (racemic) [Example 32, (3RS,5RS)-3-[N-[(Pyridin-3-yl)carbonyl]aminomethyl]-4-oxa-1-azabicyclo[3.2.0]heptan-7-one] — 2-fold higher, 0.78 µg/mL (≈ 3.15 µM)
- [N-]=[N+]=NCC(=O)NC[C@@H]1CN2C(=O)C[C@H]2O1 (racemic) [Example 9, (3RS,5RS)-3-[N-(Azidoacetyl)aminomethyl]-4-oxa-1-azabicyclo[3.2.0]heptan-7-one] — within 1.5-fold, 0.296 µg/mL (≈ 1.31 µM)
- O=C(CCCCCn1ccnn1)NC[C@@H]1CN2C(=O)C[C@H]2O1 (racemic) [Example 16, (3RS,5RS)-3-[N-[(1,2,3-Triazol-1-yl)hexanoyl]aminomethyl]-4-oxa-1-azabicyclo[3.2.0]heptan-7-one] — within 1.5-fold, 0.318 µg/mL (≈ 1.03 µM)
- O=C(N[C@@H](CO)C(=O)OCC1CN2C(=O)CC2O1)OCc1ccccc1 (stereo partly drawn) [Example 70, (3RS,5SR)-3-(L-2-N-Benzyloxycarbonylamino-3-hydroxypropanyl)oxymethyl-4-oxa-1-azabicyclo[3.2.0]heptan-7-one] — within 1.5-fold, 0.352 µg/mL (≈ 0.966 µM)
- O=C(NC[C@@H]1CN2C(=O)C[C@H]2O1)c1ccc(F)cc1 (racemic) [Example 27, (3RS,5RS)-3-[N-(4-Fluorobenzoyl)aminomethyl]-4-oxa-1-azabicyclo[3.2.0]heptan-7-one] — 1.6-fold lower, 0.24 µg/mL (≈ 0.908 µM)
- O=C(CCCCCBr)NC[C@@H]1CN2C(=O)C[C@H]2O1 (racemic) [Example 13, (3RS,5RS)-3-[N-(6-Bromohexanoyl)aminomethyl]-4-oxa-1-azabicyclo[3.2.0]heptan-7-one] — within 1.5-fold, 0.491 µg/mL (≈ 1.54 µM)
- O=COCCCCCC(=O)NC[C@@H]1CN2C(=O)C[C@H]2O1 (racemic) [Example 14, (3RS,5RS)-3-[N-(6-Formyloxyhexanoyl)aminomethyl]-4-oxa-1-azabicyclo[3.2.0]heptan-7-one] — 1.6-fold lower, 0.243 µg/mL (≈ 0.855 µM)
- O=C(CO)NC[C@@H]1CN2C(=O)C[C@H]2O1 (racemic) [Example 12, (3RS,5RS)-3-[N-(Hydroxyacetyl)aminomethyl]-4-oxa-1-azabicyclo[3.2.0]heptan-7-one] — 3.1-fold lower, 0.125 µg/mL (≈ 0.624 µM)
- C[C@@H](NC(=O)OCc1ccccc1)C(=O)N[C@@H](COCc1ccccc1)C(=O)OCC1CN2C(=O)CC2O1 (stereo partly drawn) [Example 73, (3RS,5R)-3-[L-2-N-(D-2-N-Benzyloxycarbonylaminopropanoyl)amino-3-benzyloxypropanoyl]oxymethyl-4-oxa-1-azabicyclo[3.2.0]heptan-7-one] — 5.8-fold higher, 2.22 µg/mL (≈ 4.22 µM)
- Cc1ccc(S(=O)(=O)NC[C@H]2CN3C(=O)C[C@H]3O2)cc1 (racemic) [Example 36, (3RS,5RS)-3-[N-(4-Toluenesulfonyl)aminomethyl]-4-oxa-1-azabicyclo[3.2.0]heptan-7-one] — within 1.5-fold, 0.338 µg/mL (≈ 1.14 µM)
- O=C(NC[C@@H]1CN2C(=O)C[C@H]2O1)OCc1ccccc1 (racemic) [Example 21, (3RS,5RS)-3-[N-(Benzyloxycarbonyl)aminomethyl]-4-oxa-1-azabicyclo[3.2.0]heptan-7-one] — within 1.5-fold, 0.34 µg/mL (≈ 1.23 µM)
- O=C1C[C@H]2O[C@@H](CNS(=O)(=O)c3ccc(Cl)cc3)CN12 (racemic) [Example 37, (3RS,5RS)-3-[N-(4-Chlorobenzenesulfonyl)aminomethyl]-4-oxa-1-azabicyclo[3.2.0]heptan-7-one] — within 1.5-fold, 0.484 µg/mL (≈ 1.53 µM)
- O=C(NC[C@@H]1CN2C(=O)C[C@H]2O1)c1cc(F)c(F)cc1F (racemic) [Example 29, (3RS,5RS)-3-[N-(2,4,5-Trifluorobenzoyl)aminomethyl]-4-oxa-1-azabicyclo[3.2.0]heptan-7-one] — within 1.5-fold, 0.535 µg/mL (≈ 1.78 µM)
- O=COCC(=O)NC[C@@H]1CN2C(=O)C[C@H]2O1 (racemic) [Example 11, (3RS,5RS)-3-[N-(Formyloxyacetyl)aminomethyl]-4-oxa-1-azabicyclo[3.2.0]heptan-7-one] — 2.6-fold lower, 0.147 µg/mL (≈ 0.644 µM)
- O=C(NC[C@@H]1CN2C(=O)C[C@H]2O1)c1cc(F)ccc1F (racemic) [Example 28, (3RS,5RS)-3-[N-(2,5-Difluorobenzoyl)aminomethyl]-4-oxa-1-azabicyclo[3.2.0]heptan-7-one] — within 1.5-fold, 0.379 µg/mL (≈ 1.34 µM)
- C=CCCC(=O)NC[C@@H]1CN2C(=O)C[C@H]2O1 (racemic) [Example 19, (3RS,5RS)-3-[N-(4-Pentenoyl)aminomethyl]-4-oxa-1-azabicyclo[3.2.0]heptan-7-one] — within 1.5-fold, 0.266 µg/mL (≈ 1.19 µM)
- CC(C)C(=O)NC[C@@H]1CN2C(=O)C[C@H]2O1 (racemic) [Example 5, (3RS,5RS)-3-[N-(2-Methylpropanoyl)aminomethyl]-4-oxa-1-azabicyclo[3.2.0]heptan-7-one] — 2.1-fold lower, 0.181 µg/mL (≈ 0.853 µM)
- O=C(NC[C@@H]1CN2C(=O)C[C@H]2O1)c1ccc(O)cc1 (racemic) [Example 24, (3RS,5RS)-3-[N-(4-Hydroxybenzoyl)aminomethyl]-4-oxa-1-azabicyclo[3.2.0]heptan-7-one] — within 1.5-fold, 0.276 µg/mL (≈ 1.05 µM)
- O=C(N[C@@H](COCc1ccccc1)C(=O)OCC1CN2C(=O)CC2O1)OCc1ccccc1 (stereo partly drawn) [Example 72, (3RS,5SR)-3-L-(2-N-Benzyloxycarbonylamino-3-benzyloxypropanoyl)oxymethyl-4-oxa-1-azabicyclo[3.2.0]heptan-7-one] — 4.3-fold higher, 1.67 µg/mL (≈ 3.67 µM)
- COc1ccc(C(=O)NC[C@@H]2CN3C(=O)C[C@H]3O2)cc1 (racemic) [Example 25, (3RS,5RS)-3-[N-(4-Methoxybenzoyl)aminomethyl]-4-oxa-1-azabicyclo[3.2.0]heptan-7-one] — 1.5-fold lower, 0.255 µg/mL (≈ 0.923 µM)
- [N-]=[N+]=NCCCCCC(=O)NC[C@@H]1CN2C(=O)C[C@H]2O1 (racemic) [Example 15, (3RS,5RS)-3-[N-(6-Azidohexanoyl)aminomethyl]-4-oxa-1-azabicyclo[3.2.0]heptan-7-one] — 1.5-fold lower, 0.254 µg/mL (≈ 0.903 µM)
- CC(=O)NC[C@@H]1CN2C(=O)C[C@H]2O1 [Example 3, (3R,5R)-3-(N-Acetylaminomethyl)-4-oxa-1-azabicyclo[3.2.0]heptan-7-one] — 8.2-fold higher, 3.15 µg/mL (≈ 17.1 µM)
- CC(=O)NCCCCCC(=O)NC[C@@H]1CN2C(=O)C[C@H]2O1 (racemic) [Example 17, (3RS,5RS)-3-[N-(6-Acetylaminohexanoyl)aminomethyl]-4-oxa-1-azabicyclo[3.2.0]heptan-7-one] — within 1.5-fold, 0.439 µg/mL (≈ 1.48 µM)
- COc1ccc(C(=O)NC[C@@H]2CN3C(=O)C[C@H]3O2)cc1OC (racemic) [Example 26, (3RS,5RS)-3-[N-(3,4-Dimethoxybenzoyl)aminomethyl]-4-oxa-1-azabicyclo[3.2.0]heptan-7-one] — 1.5-fold lower, 0.249 µg/mL (≈ 0.813 µM)
